# Test results: ChEMBL document CHEMBL5463727, “Data for DCP probe SGK3-PROTAC1” (2023)
# pIC50: −log10 of the molar value. Calls of active or inactive are those of the source. No cut-off for these calls is given here.
# Assays:
# [1] = molecular target: Insulin-like growth factor 1 receptor (Homo sapiens) (UniProt P08069); assay: % Activity remaining of IGF-1R in the Dundee kinase panel at 1.0 µM; conditions: Compound concentration 1.0 uM
# [2] = molecular target: Serine/threonine-protein kinase tousled-like 1 (Homo sapiens) (UniProt Q9UKI8); assay: % Activity remaining of TLK1 in the Dundee kinase panel at 1.0 µM; conditions: Compound concentration 1.0 uM
# [3] = molecular target: Ephrin type-B receptor 4 (Homo sapiens) (UniProt P54760); assay: % Activity remaining of EPH-B4 in the Dundee kinase panel at 1.0 µM; conditions: Compound concentration 1.0 uM
# [4] = molecular target: Discoidin domain-containing receptor 2 (Homo sapiens) (UniProt Q16832); assay: % Activity remaining of DDR2 in the Dundee kinase panel at 1.0 µM; conditions: Compound concentration 1.0 uM
# [5] = molecular target: 3-phosphoinositide-dependent protein kinase 1 (Homo sapiens) (UniProt O15530); assay: % Activity remaining of PDK1 in the Dundee kinase panel at 1.0 µM; conditions: Compound concentration 1.0 uM
# [6] = molecular target: Homeodomain-interacting protein kinase 2 (Homo sapiens) (UniProt Q9H2X6); assay: % Activity remaining of HIPK2 in the Dundee kinase panel at 1.0 µM; conditions: Compound concentration 1.0 uM
# [7] = molecular target: TGF-beta receptor type-1 (Homo sapiens) (UniProt P36897); assay: % Activity remaining of TGFBR1 in the Dundee kinase panel at 1.0 µM; conditions: Compound concentration 1.0 uM
# [8] = molecular target: Cyclin-dependent kinase 2/cyclin A (Homo sapiens) (UniProt P24941+P20248+P78396); assay: % Activity remaining of CDK2-Cyclin A in the Dundee kinase panel at 1.0 µM; assay type: protein-complex assay; conditions: Compound concentration 1.0 uM
# [9] = molecular target: Serine/threonine-protein kinase PLK1 (Homo sapiens) (UniProt P53350); assay: % Activity remaining of PLK1 in the Dundee kinase panel at 1.0 µM; conditions: Compound concentration 1.0 uM
# [10] = molecular target: Serine/threonine-protein kinase Sgk3 (Homo sapiens) (UniProt Q96BR1); assay: SGK3 degradation assay at 100 nM (48 h incubation, no effect on RPS6KB1, SGK1 and SGK2); assay type: functional; parameters: compound concentration 100 nM
# [11] = molecular target: Ephrin type-B receptor 3 (Homo sapiens) (UniProt P54753); assay: % Activity remaining of EPH-B3 in the Dundee kinase panel at 1.0 µM; conditions: Compound concentration 1.0 uM
# [12] = molecular target: MAP kinase-activated protein kinase 5 (Homo sapiens) (UniProt Q8IW41); assay: % Activity remaining of PRAK in the Dundee kinase panel at 1.0 µM; conditions: Compound concentration 1.0 uM
# Chain of MAP kinase-activated protein kinase 5 (Homo sapiens) (Q8IW41 whole entry): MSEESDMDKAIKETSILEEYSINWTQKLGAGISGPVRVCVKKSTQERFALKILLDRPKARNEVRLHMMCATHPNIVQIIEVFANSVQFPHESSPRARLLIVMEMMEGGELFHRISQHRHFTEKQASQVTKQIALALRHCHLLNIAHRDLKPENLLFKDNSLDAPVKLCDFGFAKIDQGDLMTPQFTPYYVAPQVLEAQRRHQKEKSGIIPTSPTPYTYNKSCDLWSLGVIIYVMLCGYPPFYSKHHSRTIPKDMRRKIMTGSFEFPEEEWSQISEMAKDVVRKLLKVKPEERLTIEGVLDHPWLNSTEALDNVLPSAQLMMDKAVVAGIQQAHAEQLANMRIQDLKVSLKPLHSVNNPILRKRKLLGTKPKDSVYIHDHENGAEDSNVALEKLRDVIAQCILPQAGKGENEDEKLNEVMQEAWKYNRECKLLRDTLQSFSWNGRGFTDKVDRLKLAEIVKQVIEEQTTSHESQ
# [13] = molecular target: Serine/threonine-protein kinase SIK2 (Homo sapiens) (UniProt Q9H0K1); assay: % Activity remaining of SIK2 in the Dundee kinase panel at 1.0 µM; conditions: Compound concentration 1.0 uM
# [14] = molecular target: Interleukin-1 receptor-associated kinase 1 (Homo sapiens) (UniProt P51617); assay: % Activity remaining of IRAK1 in the Dundee kinase panel at 1.0 µM; conditions: Compound concentration 1.0 uM
# [15] = molecular target: Serine/threonine-protein kinase N2 (Homo sapiens) (UniProt Q16513); assay: % Activity remaining of PRK2 in the Dundee kinase panel at 1.0 µM; conditions: Compound concentration 1.0 uM
# [16] = molecular target: 5'-AMP-activated protein kinase catalytic subunit alpha-1 (Homo sapiens) (UniProt Q13131); assay: % Activity remaining of AMPK (hum) in the Dundee kinase panel at 1.0 µM; conditions: Compound concentration 1.0 uM
# Chain of 5'-AMP-activated protein kinase catalytic subunit alpha-1 (Homo sapiens) (Q13131 whole entry, looked up): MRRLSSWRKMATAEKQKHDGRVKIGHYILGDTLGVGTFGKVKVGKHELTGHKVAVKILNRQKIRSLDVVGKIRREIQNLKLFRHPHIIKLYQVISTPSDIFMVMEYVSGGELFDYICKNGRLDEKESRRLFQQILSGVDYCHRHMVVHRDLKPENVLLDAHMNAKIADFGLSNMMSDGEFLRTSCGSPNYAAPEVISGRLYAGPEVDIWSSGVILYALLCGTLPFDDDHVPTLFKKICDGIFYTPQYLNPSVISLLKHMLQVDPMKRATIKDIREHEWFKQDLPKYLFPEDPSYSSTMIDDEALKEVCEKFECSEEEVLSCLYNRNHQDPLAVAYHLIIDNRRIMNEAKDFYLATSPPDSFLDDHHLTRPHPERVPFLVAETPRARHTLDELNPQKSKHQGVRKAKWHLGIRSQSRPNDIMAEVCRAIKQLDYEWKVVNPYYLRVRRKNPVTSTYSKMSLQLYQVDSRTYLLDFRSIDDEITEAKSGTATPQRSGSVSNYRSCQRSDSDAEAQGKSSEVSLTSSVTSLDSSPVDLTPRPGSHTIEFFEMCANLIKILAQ
# [17] = molecular target: Serine/threonine-protein kinase WNK1 (Homo sapiens) (UniProt Q9H4A3); assay: % Activity remaining of WNK1 in the Dundee kinase panel at 1.0 µM; conditions: Compound concentration 1.0 uM
# [18] = molecular target: RAC-alpha serine/threonine-protein kinase (Homo sapiens) (UniProt P31749); assay: % Activity remaining of PKB alpha in the Dundee kinase panel at 1.0 µM; conditions: Compound concentration 1.0 uM
# Chain of RAC-alpha serine/threonine-protein kinase (Homo sapiens) (P31749 whole entry): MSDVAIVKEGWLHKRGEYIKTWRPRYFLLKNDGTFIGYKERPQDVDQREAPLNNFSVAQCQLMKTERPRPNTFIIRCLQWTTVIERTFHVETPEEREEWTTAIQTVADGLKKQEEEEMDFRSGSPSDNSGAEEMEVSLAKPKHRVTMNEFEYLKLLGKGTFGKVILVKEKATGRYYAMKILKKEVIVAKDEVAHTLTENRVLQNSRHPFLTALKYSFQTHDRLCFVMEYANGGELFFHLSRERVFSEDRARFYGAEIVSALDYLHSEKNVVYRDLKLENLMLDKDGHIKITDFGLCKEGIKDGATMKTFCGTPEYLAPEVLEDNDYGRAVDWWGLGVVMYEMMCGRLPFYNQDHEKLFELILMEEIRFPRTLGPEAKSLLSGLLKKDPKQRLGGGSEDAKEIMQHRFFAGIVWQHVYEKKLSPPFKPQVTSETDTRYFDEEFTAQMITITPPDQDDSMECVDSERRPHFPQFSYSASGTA
# [19] = molecular target: Serine/threonine-protein kinase Sgk3 (Homo sapiens, UniProt Q96BR1); assay: SGK3 radioactive filter binding assay using 33P ATP (Dundee kinase screen)
# [20] = molecular target: Interleukin-1 receptor-associated kinase 4 (Homo sapiens) (UniProt Q9NWZ3); assay: % Activity remaining of IRAK4 in the Dundee kinase panel at 1.0 µM; conditions: Compound concentration 1.0 uM
# Chain of Interleukin-1 receptor-associated kinase 4 (Homo sapiens) (Q9NWZ3 whole entry): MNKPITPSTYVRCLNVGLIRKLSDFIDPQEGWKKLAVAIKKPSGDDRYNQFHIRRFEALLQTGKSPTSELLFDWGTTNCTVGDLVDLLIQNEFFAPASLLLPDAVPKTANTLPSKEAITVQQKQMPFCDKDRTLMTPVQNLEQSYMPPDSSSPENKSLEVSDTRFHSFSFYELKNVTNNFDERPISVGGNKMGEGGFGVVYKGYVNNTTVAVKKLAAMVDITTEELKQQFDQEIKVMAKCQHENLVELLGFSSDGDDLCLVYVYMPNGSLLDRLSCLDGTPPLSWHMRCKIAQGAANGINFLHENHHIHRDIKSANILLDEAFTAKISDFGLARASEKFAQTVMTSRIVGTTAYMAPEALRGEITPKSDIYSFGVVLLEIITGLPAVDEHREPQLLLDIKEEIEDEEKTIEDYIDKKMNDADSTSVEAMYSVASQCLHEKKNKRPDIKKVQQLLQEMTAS
# [21] = molecular target: Angiopoietin-1 receptor (Homo sapiens) (UniProt Q02763); assay: % Activity remaining of TIE2 in the Dundee kinase panel at 1.0 µM; conditions: Compound concentration 1.0 uM
# Chain of Angiopoietin-1 receptor (Homo sapiens) (Q02763 whole entry): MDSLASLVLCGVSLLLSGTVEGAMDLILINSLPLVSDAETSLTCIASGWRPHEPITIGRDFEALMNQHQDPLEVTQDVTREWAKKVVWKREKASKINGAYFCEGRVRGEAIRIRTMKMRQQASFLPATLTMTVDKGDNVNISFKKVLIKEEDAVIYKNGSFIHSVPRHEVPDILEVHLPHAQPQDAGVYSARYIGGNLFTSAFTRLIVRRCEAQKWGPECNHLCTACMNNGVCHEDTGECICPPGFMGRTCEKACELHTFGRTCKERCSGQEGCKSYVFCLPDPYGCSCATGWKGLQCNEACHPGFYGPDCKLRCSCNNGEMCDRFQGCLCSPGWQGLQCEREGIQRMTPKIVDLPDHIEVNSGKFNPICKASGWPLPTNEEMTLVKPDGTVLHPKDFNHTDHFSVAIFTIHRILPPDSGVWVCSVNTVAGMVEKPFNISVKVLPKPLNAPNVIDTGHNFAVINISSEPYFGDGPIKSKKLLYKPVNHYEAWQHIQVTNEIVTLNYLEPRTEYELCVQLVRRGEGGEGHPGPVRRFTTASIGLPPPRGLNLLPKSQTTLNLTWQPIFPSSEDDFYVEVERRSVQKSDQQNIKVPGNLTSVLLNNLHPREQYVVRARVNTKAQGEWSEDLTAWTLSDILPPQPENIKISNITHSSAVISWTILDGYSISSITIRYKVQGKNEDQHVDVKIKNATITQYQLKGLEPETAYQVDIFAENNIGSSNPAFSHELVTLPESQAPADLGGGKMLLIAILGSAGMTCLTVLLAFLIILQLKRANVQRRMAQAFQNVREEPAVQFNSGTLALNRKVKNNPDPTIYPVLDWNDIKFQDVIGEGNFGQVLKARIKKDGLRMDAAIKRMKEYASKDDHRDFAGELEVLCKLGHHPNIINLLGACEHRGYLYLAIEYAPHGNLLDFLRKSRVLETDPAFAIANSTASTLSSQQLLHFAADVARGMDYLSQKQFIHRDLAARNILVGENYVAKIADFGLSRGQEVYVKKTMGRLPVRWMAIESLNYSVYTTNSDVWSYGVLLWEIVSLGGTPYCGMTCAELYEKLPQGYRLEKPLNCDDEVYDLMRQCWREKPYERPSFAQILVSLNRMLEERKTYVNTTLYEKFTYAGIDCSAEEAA
# [22] = molecular target: Misshapen-like kinase 1 (Homo sapiens) (UniProt Q8N4C8); assay: % Activity remaining of MINK1 in the Dundee kinase panel at 1.0 µM; conditions: Compound concentration 1.0 uM
# [23] = molecular target: Fibroblast growth factor receptor 1 (Homo sapiens) (UniProt P11362); assay: % Activity remaining of FGF-R1 in the Dundee kinase panel at 1.0 µM; conditions: Compound concentration 1.0 uM
# [24] = molecular target: Calcium/calmodulin-dependent protein kinase kinase 2 (Homo sapiens) (UniProt Q96RR4); assay: % Activity remaining of CAMKK beta in the Dundee kinase panel at 1.0 µM; conditions: Compound concentration 1.0 uM
# [25] = molecular target: Serine/threonine-protein kinase Sgk1 (Homo sapiens, UniProt O00141); assay: (§1) % Activity remaining of SGK1 in the Dundee kinase panel at 1.0 µM
# [26] = molecular target: T1, Serine/threonine-protein kinase Sgk1 (Homo sapiens) (UniProt O00141); assay: as §1; conditions: Compound concentration 1.0 uM
# T1 sequence (whole entry): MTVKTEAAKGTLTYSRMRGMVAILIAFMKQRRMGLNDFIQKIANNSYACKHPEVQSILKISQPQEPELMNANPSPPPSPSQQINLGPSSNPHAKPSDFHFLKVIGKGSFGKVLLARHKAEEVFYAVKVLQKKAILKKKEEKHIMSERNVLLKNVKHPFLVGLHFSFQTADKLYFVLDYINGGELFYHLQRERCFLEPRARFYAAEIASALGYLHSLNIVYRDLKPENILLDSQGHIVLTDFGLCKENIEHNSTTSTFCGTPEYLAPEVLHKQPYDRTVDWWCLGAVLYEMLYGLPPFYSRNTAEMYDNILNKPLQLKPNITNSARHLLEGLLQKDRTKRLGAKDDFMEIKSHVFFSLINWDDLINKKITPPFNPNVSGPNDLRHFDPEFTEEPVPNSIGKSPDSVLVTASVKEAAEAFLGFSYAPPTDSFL
# [27] = molecular target: Serine/threonine-protein kinase OSR1 (Homo sapiens) (UniProt O95747); assay: % Activity remaining of OSR1 in the Dundee kinase panel at 1.0 µM; conditions: Compound concentration 1.0 uM
# [28] = molecular target: NUAK family SNF1-like kinase 1 (Homo sapiens) (UniProt O60285); assay: % Activity remaining of NUAK1 in the Dundee kinase panel at 1.0 µM; conditions: Compound concentration 1.0 uM
# Chain of NUAK family SNF1-like kinase 1 (Homo sapiens) (O60285 whole entry): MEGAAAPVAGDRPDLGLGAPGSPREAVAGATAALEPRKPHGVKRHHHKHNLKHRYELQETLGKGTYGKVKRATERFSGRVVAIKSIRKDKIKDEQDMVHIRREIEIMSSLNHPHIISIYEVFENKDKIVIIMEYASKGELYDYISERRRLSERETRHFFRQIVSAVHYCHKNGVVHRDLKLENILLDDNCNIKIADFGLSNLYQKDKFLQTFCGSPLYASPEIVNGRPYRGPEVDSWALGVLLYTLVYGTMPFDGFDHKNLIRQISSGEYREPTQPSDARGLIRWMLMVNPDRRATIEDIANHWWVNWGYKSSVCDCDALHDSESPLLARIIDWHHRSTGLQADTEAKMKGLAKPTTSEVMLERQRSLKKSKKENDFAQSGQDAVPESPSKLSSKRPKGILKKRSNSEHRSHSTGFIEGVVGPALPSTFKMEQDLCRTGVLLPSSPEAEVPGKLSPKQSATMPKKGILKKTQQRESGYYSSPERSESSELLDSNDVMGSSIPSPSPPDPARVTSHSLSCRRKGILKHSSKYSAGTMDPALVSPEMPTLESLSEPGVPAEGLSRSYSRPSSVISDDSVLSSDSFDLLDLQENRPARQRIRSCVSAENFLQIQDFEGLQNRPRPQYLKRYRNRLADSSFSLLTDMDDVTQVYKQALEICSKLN
# [29] = molecular target: Protein kinase C alpha type (Homo sapiens) (UniProt P17252); assay: % Activity remaining of PKC alpha in the Dundee kinase panel at 1.0 µM; conditions: Compound concentration 1.0 uM
# [30] = molecular target: Protein kinase C zeta type (Homo sapiens) (UniProt Q05513); assay: % Activity remaining of PKC zeta in the Dundee kinase panel at 1.0 µM; conditions: Compound concentration 1.0 uM
# [31] = molecular target: Mitogen-activated protein kinase kinase kinase kinase 3 (Homo sapiens) (UniProt Q8IVH8); assay: % Activity remaining of MAP4K3 in the Dundee kinase panel at 1.0 µM; conditions: Compound concentration 1.0 uM
# Chain of Mitogen-activated protein kinase kinase kinase kinase 3 (Homo sapiens) (Q8IVH8 whole entry): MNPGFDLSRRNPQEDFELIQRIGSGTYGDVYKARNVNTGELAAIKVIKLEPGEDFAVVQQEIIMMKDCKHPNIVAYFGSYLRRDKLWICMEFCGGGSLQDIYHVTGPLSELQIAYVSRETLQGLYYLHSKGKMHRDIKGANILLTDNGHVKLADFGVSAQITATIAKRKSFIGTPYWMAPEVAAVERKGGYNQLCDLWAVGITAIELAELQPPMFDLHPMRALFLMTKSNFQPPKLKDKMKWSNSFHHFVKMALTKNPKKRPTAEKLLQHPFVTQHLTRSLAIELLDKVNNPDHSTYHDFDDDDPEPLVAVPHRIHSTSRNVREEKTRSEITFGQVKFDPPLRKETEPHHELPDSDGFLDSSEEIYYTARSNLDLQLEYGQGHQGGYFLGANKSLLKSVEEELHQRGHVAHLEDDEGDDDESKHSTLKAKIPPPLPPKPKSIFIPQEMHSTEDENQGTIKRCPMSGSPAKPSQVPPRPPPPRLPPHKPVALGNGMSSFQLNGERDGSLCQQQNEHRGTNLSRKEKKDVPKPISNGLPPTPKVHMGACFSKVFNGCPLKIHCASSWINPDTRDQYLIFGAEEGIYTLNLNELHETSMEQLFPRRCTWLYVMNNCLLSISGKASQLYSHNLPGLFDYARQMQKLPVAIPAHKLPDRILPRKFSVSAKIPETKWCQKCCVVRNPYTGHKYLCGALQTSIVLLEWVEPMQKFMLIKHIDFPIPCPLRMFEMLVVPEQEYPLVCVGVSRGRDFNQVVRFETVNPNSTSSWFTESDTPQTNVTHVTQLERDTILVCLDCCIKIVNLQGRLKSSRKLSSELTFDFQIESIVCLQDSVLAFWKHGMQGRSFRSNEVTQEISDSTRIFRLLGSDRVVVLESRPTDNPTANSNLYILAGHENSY
# [32] = molecular target: cAMP-dependent protein kinase catalytic subunit alpha (Homo sapiens) (UniProt P17612); assay: % Activity remaining of PKA in the Dundee kinase panel at 1.0 µM; conditions: Compound concentration 1.0 uM
# [33] = molecular target: Serine/threonine-protein kinase pim-1 (Homo sapiens) (UniProt P11309); assay: % Activity remaining of PIM1 in the Dundee kinase panel at 1.0 µM; conditions: Compound concentration 1.0 uM
# [34] = molecular target: Dual specificity mitogen-activated protein kinase kinase 6 (Homo sapiens) (UniProt P52564); assay: % Activity remaining of MKK6 in the Dundee kinase panel at 1.0 µM; conditions: Compound concentration 1.0 uM
# Chain of Dual specificity mitogen-activated protein kinase kinase 6 (Homo sapiens) (P52564 whole entry): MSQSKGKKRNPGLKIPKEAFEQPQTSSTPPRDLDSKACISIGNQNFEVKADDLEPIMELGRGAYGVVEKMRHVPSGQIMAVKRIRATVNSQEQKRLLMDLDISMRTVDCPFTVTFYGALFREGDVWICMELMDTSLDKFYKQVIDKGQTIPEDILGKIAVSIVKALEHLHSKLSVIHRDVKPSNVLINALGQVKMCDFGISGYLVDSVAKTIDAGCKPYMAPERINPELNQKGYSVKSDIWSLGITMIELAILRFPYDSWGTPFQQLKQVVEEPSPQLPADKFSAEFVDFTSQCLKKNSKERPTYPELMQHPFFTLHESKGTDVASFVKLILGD
% Activity remaining [1] [%],% Activity remaining [2] [%],% Activity remaining [3] [%],% Activity remaining [4] [%],% Activity remaining [5] [%],% Activity remaining [6] [%],% Activity remaining [7] [%],% Activity remaining [8] [%],% Activity remaining [9] [%],Degradation [10] [%],% Activity remaining [11] [%],% Activity remaining [12] [%],% Activity remaining [13] [%],% Activity remaining [14] [%],% Activity remaining [15] [%],% Activity remaining [16] [%],% Activity remaining [17] [%],% Activity remaining [18] [%],IC50 [19],% Activity remaining [20] [%],Compound,other results
93.2,109,108,134,86.5,99.7,114,103,98.4,0,104,119,93.8,105,101,108,96.6,117,600 nM (not active),98,Cc1ccc(F)c(S(=O)(=O)Nc2ccc(-c3nc(OC[C@H]4CN(CCCCCCOCCOCCOCC(=O)N[C@H](C(=O)N5C[C@@H](O)C[C@H]5C(=O)NCc5ccc(-c6scnc6C)cc5)C(C)(C)C)CCO4)c4cn[nH]c4n3)cc2)c1,% Activity remaining [21]: 80.8%; % Activity remaining [22]: 116%; % Activity remaining [23]: 106%; % Activity remaining [24]: 108%; pIC50 [25]: 5.85; % Activity remaining [26]: 50.9%; % Activity remaining [27]: 118%; % Activity remaining [28]: 90%; % Activity remaining [29]: 118%; % Activity remaining [30]: 110%; % Activity remaining [31]: 95.5%; % Activity remaining [32]: 111%; % Activity remaining [33]: 96.5%; % Activity remaining [34]: 108%
82.4,102,107,114,99.3,109,124,101,97.9,65,91.6,115,94.6,98.3,105,105,93.8,105,300 nM (active),114,Cc1ccc(F)c(S(=O)(=O)Nc2ccc(-c3nc(OC[C@H]4CN(CCCCCCOCCOCCOCC(=O)N[C@H](C(=O)N5C[C@H](O)C[C@H]5C(=O)NCc5ccc(-c6scnc6C)cc5)C(C)(C)C)CCO4)c4cn[nH]c4n3)cc2)c1,% Activity remaining [21]: 63.8%; % Activity remaining [22]: 115%; % Activity remaining [23]: 108%; % Activity remaining [24]: 98.9%; pIC50 [25]: 6.66; % Activity remaining [26]: 34.5%; % Activity remaining [27]: 103%; % Activity remaining [28]: 98%; % Activity remaining [29]: 121%; % Activity remaining [30]: 96.5%; % Activity remaining [31]: 98.8%; % Activity remaining [32]: 108%; % Activity remaining [33]: 94.5%; % Activity remaining [34]: 123%
